Data as given in BigSolDB 2.1.

Work on O=C1CCc2ccc(OCCCCN3CCN(c4cccc(Cl)c4Cl)CC3)cc2N1 yielded a solubility (mole fraction) (in acetone, 278.15 K) of 1.97e-05, a solubility (mole fraction) (in acetone, 283.15 K) of 2.73e-05 and a solubility (mole fraction) (in acetone, 288.15 K) of 3.6e-05. The solubility (mole fraction) (in acetone, 293.15 K) was 4.71e-05, the solubility (mole fraction) (in acetone, 298.15 K) was 5.94e-05 and the solubility (mole fraction) (in acetone, 303.15 K) was 7.32e-05. For the same compound, the solubility (mole fraction) (in acetone, 308.15 K) was 8.93e-05, the solubility (mole fraction) (in acetone, 313.15 K) was 0.00011 and the solubility (mole fraction) (in acetone, 318.15 K) was 0.000135. For the same compound, the solubility (mole fraction) (in isopropanol, 278.15 K) was 6.32e-06, the solubility (mole fraction) (in isopropanol, 283.15 K) was 9.1e-06 and the solubility (mole fraction) (in isopropanol, 288.15 K) was 1.22e-05. It also gave a solubility (mole fraction) (in isopropanol, 293.15 K) of 1.68e-05, a solubility (mole fraction) (in isopropanol, 298.15 K) of 2.25e-05 and a solubility (mole fraction) (in isopropanol, 303.15 K) of 2.94e-05. It also gave a solubility (mole fraction) (in isopropanol, 308.15 K) of 3.89e-05, a solubility (mole fraction) (in isopropanol, 313.15 K) of 5.05e-05 and a solubility (mole fraction) (in isopropanol, 318.15 K) of 6.38e-05. The solubility (mole fraction) (in n-propanol, 278.15 K) was 1.46e-05, the solubility (mole fraction) (in n-propanol, 283.15 K) was 1.93e-05 and the solubility (mole fraction) (in n-propanol, 288.15 K) was 2.57e-05. For the same compound, the solubility (mole fraction) (in n-propanol, 293.15 K) was 3.28e-05, the solubility (mole fraction) (in n-propanol, 298.15 K) was 4.12e-05 and the solubility (mole fraction) (in n-propanol, 303.15 K) was 5.37e-05. It also gave a solubility (mole fraction) (in n-propanol, 308.15 K) of 6.72e-05, a solubility (mole fraction) (in n-propanol, 313.15 K) of 8.32e-05 and a solubility (mole fraction) (in n-propanol, 318.15 K) of 0.000103.
